In US20240182492A1, “AZAHETEROARYL COMPOUND, PREPARATION METHOD THEREFOR, AND APPLICATION THEREOF” (SHANGHAI BLUERAY BIOPHARMA CO., LTD., priority 2021, published 2024):

Experiments:
[1] = tested on: trimethylation level of histone H3K27 in G401 cells; assay: ELISA (H3K27 trimethylation) analysis in G401 cells; format: cell-based; settings: H3K27me3 normalized by H3
Description: Example 54: ELISA (H3K27 Trimethylation) Analysis
Representative compounds of the present disclosure are diluted in DMSO with 3-fold gradient, and 10 concentration gradients are tested per compound. The maximum testing concentration is 10 μM. The compound is diluted 200-fold into G401 cells cultured in 96-well plates (the final concentration of DMSO is 0.5%). After the cells are cultured for 72 hours, the trimethylation level of histone H3K27 is detected by ELISA method.
Histone extraction: compound-treated cells in a 96-well plate are washed 3 times with 1×PBS (10×PBS buffer (80 g NaCl (Sigma, Product No. S3014), 2 g KCl (Sigma, Product No. 60128), 14.4 g Na2HAPO4 (Sigma, Product No. S5136) and 2.4 g KH2PO4 (Sigma, Product No. P9791) are added to 1 L water, pH to 7.4), and 100 μL of 0.4N HCl is added to each well. The 96-well plate is placed at 4° C. and gently shaken for 2 hours to lyse the cells. The cell lysate is then neutralized with 80 μL of neutralization buffer (0.5M disodium hydrogen phosphate, pH 12.5, 2.5 mM DTT; 1% cocktail (Sigma, Product No. P8340) (mixing the cell lysate and neutralization buffer thoroughly).
ELISA detection method: the cell lysates are transferred in parallel to two 384-well assay plates (PerkinElmer, OptiPlate-384HB, Product No. 6007290). One plate is used to detect the trimethylation level of H3K27, and the other plate is used to measure the level of H3. PBS is adjusted to a final volume of 50 μL/well. The wells are coated overnight at 4° C. On the next day, the solution in the wells was discarded. TBST buffer (1 xTBS (10×TBS: 24.2 g Tris (Sigma, Product No. T6066) and 80 g NaCl (Sigma, Product No. S3014) are added to 1 L water, and pH is adjusted to 7.6 with HCl) and 0.1% Tween-20) is used to wash it 5 times, and the water is dried on absorbent papers. 70 μL of blocking buffer (TBST, 5% BSA) is added to the coated reaction wells, and the wells are incubated for 1 hour at room temperature. The blocking buffer was discarded, and the primary antibody is added (30 μL/well). The required primary antibodies are diluted with blocking buffer, and the dilution ratios were as follows: anti-H3K27me3 antibody (Cell Signaling Technology, Product No. 9733), 1:2000 dilution; anti-H3 antibody (Cell Signaling Technology, Product No. 4499), 1:10000 dilution. After adding the primary antibody, the wells are incubated at room temperature for 1 hour. After washing with TBST for 5 times, the water are dried. The secondary antibody (30 μL/well) is added to each reaction well, and the wells are incubated at room temperature for 1 hour. Secondary antibody (anti-rabbit antibody (Jackson ImmunoResearch, Product No. 111-035-003)) is used after dilution 2000-fold in blocking buffer. After 1 hour, it is washed with TBST and dried. 30 μL of ECL substrate (Pierce, Product No. 34080) is added to each well and centrifuged for 30 seconds at 2000 rpm. Signal of each sample is detected using Molecular Devices, SpectraMax. Data processing: H3K27 methylation readings are first normalized by H3 signal. 0.500 DM8)-treated sample is used as a control, and the inhibition percentage of the compound is calculated. The data is fitted to a dose-response curve using the GraphPad prisim5 program, obtaining the IC50 values of the test compounds.

[2] = target: T1, EED protein (full-length, His6 tag) binding to H3K27me3 polypeptide (Homo sapiens, UniProt O75530); assay: AlphaScreen evaluation of blocking the binding of EED to H3K27Me3; settings: EED / biotinylated H3K27me3 peptide competition
T1 construct: The full-length EED protein (441 amino acids) with His6 tag
Description: Example 53: Evaluation of the Effect of the Compound in Blocking the Binding of EED to H3K27Me3 by AlphaScreen (a-Screening) Method
First, compound solutions with different concentration gradients are prepared. Compound powder is dissolved in DMSO to form mother liquor. 1.5 μL of the compound mother liquor is taken to 198.5 μL reaction buffer (25 mM HEPES (pH 8.0), 50 mM NaCl, 0.015% Tween 20, 0.5% BSA) and the solution is mix uniformly, and then 3-fold gradient dilution is performed with the above buffer containing 0.75% DMSO. 9 different test concentrations are set for the same compound. 5 μL of compounds with different concentration gradients was taken to ProxiPlate-384 Plus, White detection plate (PerkinElmer, 6008280), and 2 parallel replicates are set for each concentration gradient.
Next, a binding blocking reaction is performed. The full-length EED protein (441 amino acids) with His6 tag is diluted to 60 nM with the above buffer, and the biotinylated polypeptide fragment H3K27me3 (amino acids 19-33) (Biotinylated-H3K27me3) is diluted to 75 nM with the same buffer. 5 μL of 75 nM peptide fragments and 5 μL of 60 nM protein are transferred to the testing wells containing the compound respectively. The testing plate is sealed with a film, and is incubated for 30 minutes at room temperature.
Finally, AlphaScreen method is used for detection. Before use, nickel chelate acceptor beads and streptavidin donor beads (Perkin Elmer, product number 6760619M) are mixed into the above reaction buffer at a ratio of 1:1, and then 5 μL of the above pre-mixed testing solution is added to each testing well. The final concentration of the donor beads and acceptor beads is 5 μg/mL. The testing plate is covered with tin foil and placed at room temperature in the dark for 1 hour. Signals are read using an AlphaScreen detector on a Spectra max i3. The AlphaScreen signal is normalized according to the readings obtained from the positive control (maximum signal control) and negative control (minimum signal control) to give the inhibition rate of different concentrations of the compound. After that, non-linear regression analysis was performed with GraphPad Prism 5, and dose-response equation Y=Bottom+(Top−Bottom)/(1+10^((Log IC50−X)*HillSlope)) is used to make an inhibition curve, obtaining the IC50 value of each compound. […]

[3] = tested on: B-cell non-Hodgkin lymphoma cells KARPAS-422; assay: Cell proliferation analysis, KARPAS-422, 13 days, CellTiter-Glo; format: cell-based, Human; settings: Karpas-422, 13 days
Description: Example 55: Cell Proliferation Analysis
Human B-cell non-Hodgkin lymphoma cells KARPAS-422 S were cultured in culture flasks using standard cell culture conditions. The culture medium contains 15% fetal bovine serum (FBS, Invitrogen, product number 10099-141), 1% penicillin/streptomycin solution (P/S) RPMI-1640 (Invitrogen, product number 11875), and the culture flask is placed and cultured in a sterile incubator at 37° C., 95% relative humidity, and 5% CO2. In order to detect the effect of PRC2 inhibitors on cell proliferation, cells in the exponential growth phase were seeded into 96-well plates (Corning, product number 3904) at a density of 1×10^4 cells/well, and 100 μL of medium was added to each well. Subsequently, the compounds disclosed herein at different concentrations were added to the wells seeded with cells (9 concentration gradients were set for each compound, and the highest detection concentration was 10 μM, 3-fold gradient dilution), and 2 repeats in parallel were set for each treatment concentration. The final concentration of DMSO is 0.5%. Then the number of surviving cells was counted with Vi-CELL (Beckman Coulter) every 3-4 days. The cells counted each time were seeded into a new 96-well plate at the same density (1×10^4 cells/well). The wells were supplemented with fresh medium to 100 μL, and different concentrations of the compound were added at the same time. The cells were cultured until the 13th day, on which 100 μL of CellTiter-Glo (CellTiter-GloCellTiter-GloCellTiter-GloCTG) (Promega, Product No. G7573) was added to each well. The plate was placed for 10-20 minutes in the dark at room temperature, and Molecular Devices and SpectraMax i3X were used to read the luminous signal. The data were fitted to a dose-response curve using GraphPad prisim5 and the IC50 values of the tested compounds were obtained.

[4] = Homo sapiens, KARPAS-422, 312 h

T1 sequence (O75530 whole entry): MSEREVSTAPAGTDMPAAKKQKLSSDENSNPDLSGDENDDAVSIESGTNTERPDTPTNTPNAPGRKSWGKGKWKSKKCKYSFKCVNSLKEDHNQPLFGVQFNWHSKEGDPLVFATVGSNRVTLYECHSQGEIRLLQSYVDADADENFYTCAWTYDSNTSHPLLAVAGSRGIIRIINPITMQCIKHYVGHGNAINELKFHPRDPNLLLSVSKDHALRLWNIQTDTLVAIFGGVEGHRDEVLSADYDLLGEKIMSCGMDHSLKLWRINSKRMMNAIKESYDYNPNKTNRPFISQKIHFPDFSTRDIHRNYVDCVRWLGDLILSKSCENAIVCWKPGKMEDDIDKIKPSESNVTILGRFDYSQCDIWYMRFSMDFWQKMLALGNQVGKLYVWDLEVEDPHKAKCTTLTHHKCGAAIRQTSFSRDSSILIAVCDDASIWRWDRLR

Row | SMILES | IC50 ([1]; Homo sapiens, G-401, 72 h) [µM] | IC50 [2] [µM] | IC50 [3, 4] [µM] | IC50 ([1]; 72 hours) [µM] | IC50 [3] [µM]
1 | Cc1cc(-c2cnc(NCc3c(F)ccc4c3CCO4)n3cnnc23)c2ncnn2c1C(C)(C)O [2-(8-(5-(((5-fluoro-2,3-dihydrobenzofuran-4-yl)methyl)amino)-[1,2,4]triazolo[4,3-c]pyrimidin-8-yl)-6-methyl-[1,2,4]triazolo[1,5-a]pyridin-5-yl)propan-2-ol] | 0.0024 | 0.0075 | 0.0087 | – | –
2 | CCC(O)(CC)c1ccc(-c2cnc(NCc3c(F)ccc4c3CCO4)n3cnnc23)c2ncnn12 [3-(8-(5-(((5-fluoro-2,3-dihydrobenzofuran-4-yl)methyl)amino)-[1,2,4]triazolo[4,3-c]pyrimidin-8-yl)-[1,2,4]triazolo[1,5-a]pyridin-5-yl)pentan-3-ol] | 0.0024 | 0.0035 | 0.0077 | – | –
3 | OC(CF)(CF)c1ccc(-c2cnc(NCc3c(F)ccc4c3CCO4)n3cnnc23)c2ncnn12 [1,3-difluoro-2-[8-(5-{[(5-fluoro-2,3-dihydro-1-benzofuran-4-yl)methyl]amino]-[1,2,4]triazolo[4,3-c]pyrimidin-8-yl)-[1,2,4]triazol[1,5-a]pyridin-5-yl]propan-2-ol] | 0.0011 | 0.0069 | 0.0041 | – | –
4 | CC(C)(O)Cc1ccc(-c2cnc(NCc3c(F)ccc4c3CCO4)n3cnnc23)c2ncnn12 [1-(8-(5-(((5-fluoro-2,3-dihydrobenzofuran-4-yl)methyl)amino)-[1,2,4]triazolo[4,3-c]pyrimidin-8-yl)-[1,2,4]triazolo[1,5-a]pyridin-5-yl)-2-methylpropan-2-ol] | 0.0032 | 0.0113 | 0.0102 | – | –
5 | CC(O)(CF)c1ccc(-c2cnc(NCc3c(F)ccc4c3CCO4)n3cnnc23)c2ncnn12 (single isomer, unassigned) [Compound g] | 0.0006 | 0.004 | 0.0015 | – | –
6 | CCC(C)(O)c1ccc(-c2cnc(NCc3c(F)ccc4c3CCO4)n3cnnc23)c2ncnn12 (single isomer, unassigned) [Compound b] | – | 0.0089 | – | 0.0017 | 0.0079
7 | OC(c1ccc(-c2cnc(NCc3c(F)ccc4c3CCO4)n3cnnc23)c2ncnn12)(C(F)F)C(F)F [1,1,3,3-tetrafluoro-2-(8-(5-(((5-fluoro-2,3-dihydrobenzofuran-4-yl)methyl)amino)-[1,2,4]triazolo[4,3-c]pyrimidin-8-yl)-[1,2,4]triazolo[1,5-a]pyridin-5-yl)propan-2-ol] | 0.0012 | 0.003 | 0.0049 | – | –
8 | CC(O)(c1ccc(-c2cnc(NCc3c(F)ccc4c3CCO4)n3cnnc23)c2ncnn12)C(F)F (stereo not drawn) [1,1-difluoro-2-(8-(5-(((5-fluoro-2,3-dihydrobenzofuran-4-yl)methyl)amino)-[1,2,4]triazolo[4,3-c]pyrimidin-8-yl)-[1,2,4]triazolo[1,5-a]pyridin-5-yl)propan-2-ol] | 0.0015 | 0.0051 | 0.0048 | – | –
9 | OC1(c2ccc(-c3cnc(NCc4c(F)ccc5c4CCO5)n4cnnc34)c3ncnn23)CC1 [1-[8-(5-{[(5-fluoro-2,3-dihydro-1-benzofuran-4-yl)methyl]amino]-[1,2,4]triazolo[4,3-c]pyrimidin-8-yl)-[1,2,4]triazol[1,5-a]pyridin-5-yl]cyclopropan-1-ol] | 0.0009 | 0.0047 | 0.0033 | – | –
10 | CC(O)(CF)c1ccc(-c2cnc(NCc3c(F)ccc4c3CCO4)n3cnnc23)c2ncnn12 (single isomer, unassigned) [Compound h] | – | 0.0048 | – | 0.0012 | 0.0025
11 | CCC(O)c1ccc(-c2cnc(NCc3c(F)ccc4c3CCO4)n3cnnc23)c2ncnn12 (single isomer, unassigned) [Compound e] | – | 0.0064 | – | 0.0004 | 0.002
12 | CC(O)(CF)c1ccc(-c2cnc(NCc3c(F)ccc4c3CCO4)n3cnnc23)c2ncnn12 (stereo not drawn) [1-fluoro-2-[8-(5-{[(5-fluoro-2,3-dihydro-1-benzofuran-4-yl)methyl]amino}-[1,2,4]triazolo[4,3-c]pyrimidin-8-yl)-[1,2,4]triazolo[1,5-a]pyridin-5-yl]propan-2-ol] | 0.0011 | 0.0043 | 0.0022 | – | –
